Test results published in patent US20130061339A1, “METHOD OF DIAGNOSING TRICHOTILLOMANIA AND SIMILAR DISORDERS IN HUMANS AND RODENTS” (Purdue Research Foundation, priority 2011, published 2013).

What was measured:
[1] = system: barbering behavior in C57BL/6J mice; assay: barbering in mice after 24 weeks of feed supplemented with NAC; format: in vivo, mouse; conditions: NAC 1 g/kg/day in feed, vs mice not treated with NAC, P=0.0152
Source text: (§1) Thirty-two female adult C57BL/6J mice (14 barbers and 18 non-barbers) were separated into cages with no barbers, and cages with at least one barber. Cages with no barbers were fed a diet to induce barbering, as per Dufour, et al.. Cages with barbers were fed a regular mouse diet. Half the cages in each group had their feed supplemented with NAC, at a dose of 1 g/kg/day per mouse. Urine was collected at baseline and 24 weeks, to measure: reductive capacity, which reflects the sum of unused antioxidants from the diet, and antioxidants produced to defend the body. The level of 8 hydroxy-2-deoxyguanosine (8-OH-dG) which measures DNA damage from ongoing oxidative stress was also measured at 24 weeks only. Urine concentration was controlled by measuring creatinine. Six animals provided urine too dilute for analysis. Barbering and patterns of hair loss were recorded every 2 weeks. Data were analyzed using generalized linear model (GLM) and logistic regression using JMP statistical software, available from SAS, Cary N.C.

[2] = standardized reductive capacity of urine after treatment; format: in vivo, mouse; conditions: 24 weeks, NAC 1 g/kg/day in feed, mice that were and were not barbers at the start; P=0.0244
Source text: as §1

[3] = system: trichotillomania patients; conditions: 50 trichotillomania patients, randomized double-blind placebo study [2]; cited from earlier work

## CC(=O)N[C@@H](CS)C(=O)O [NAC, N-acetylcysteine]
[1]; mice that were barbers at the start, regular diet
  proportion of mice barbering after 24 weeks of treatment (curative effect): fewer mice treated with NAC were barbering
[1]; mice that were not barbers at the start, barbering-inducing diet
  proportion of mice barbering after 24 weeks of treatment (preventative effect): fewer mice treated with NAC were barbering
[2]
  standardized reductive capacity of urine after treatment: only increases reductive capacity in healthy mice
[3]
  patients in whom symptoms were reduced: 56%
